# From article PMC10778626, “Efficacy of Novel Quaternary Ammonium and Phosphonium Salts Differing in Cation Type and Alkyl Chain Length against Antibiotic-Resistant Staphylococcus aureus” (International Journal of Molecular Sciences, 2023)
# Where two headings read alike, the source gives them in different places.
# Assays:
# [1] = set-up: method as in earlier work; conditions: standard mixture for the calibration line; cited from earlier work
# HepG2 cells = assay: Cytotoxicity by neutral red (NR) uptake; assay type: cell-based, human; conditions: HepG2, 24 h
# Method: The evaluation of the cytotoxicity effects of QHSs was performed using hepatocellular carcinoma (HepG2) cells. […] The cells used for all experiments were taken between the 9th and 13th passages, to avoid phenotypic changes.
# The cytotoxicity profile of the compounds under study was evaluated in HepG2 cells (2.5 × 10^5 cells/mL) seeded in 96-well plates. […] Control experiments were performed for viability endpoints by adding the vehicle (medium with 0.1% DMSO) instead of the compound solution.
# In the NR uptake assay, following a 24 h incubation period with the test compounds, the cell culture medium was aspirated, and fresh medium containing 150 µL of the dye (at a concentration of […]) was added to the cells. […] After incubation, the cell culture medium was discarded, and a mixture of absolute ethanol and distilled water (1:1) containing 5% acetic acid was added to extract the dye accumulated within the lysosomes of viable cells. The absorbance at 540 nm was measured using a microplate reader (Synergy HTX Multi-Mode Reader—BioTek, Winooski, VT, USA).
# For all assays, results are expressed as a percentage of the control (nontreated cells), taken as 100%.
# S. aureus CECT 976 [2] = system: S. aureus CECT 976; set-up: method as in Abreu et al. [44]; conditions: antibiotics, broth microdilution, ref Abreu et al. [44]; cited from earlier work
# S. aureus CECT 976 [3] = assay: MIC/MBC by broth microdilution, S. aureus CECT 976; assay type: cell-based; conditions: Staphylococcus aureus, CECT976, S. aureus CECT 976, broth microdilution
# Method: (§1) The minimum inhibitory concentration (MIC) and minimum bactericidal concentration (MBC) values of all QHSs were determined by the broth microdilution method, according to the approved M7-A7 (aerobes) standards of the Clinical and Laboratory Standards Institute (CLSI) guidelines. Overnight cell cultures of S. aureus, in the exponential phase of growth, were adjusted to an optical density (OD) of 0.132 ± 0.02 (λ = 600 nm). Then, a volume of 180 µL of the cell suspension was added to sterile, flat, clear-bottomed polystyrene (PS) 96-well microtiter plates (VWR—Radnor, PA, USA), already containing 20 µL of each QHS under study at concentrations ranging from 0.0625 to 64 µg/mL. In the end, the volume of each compound never exceeded 10% (v/v) of the well volume. Microtiter plates were then incubated for 24 h at 37 °C under agitation (150 rpm; INCU-Line IL 150R incubator). Absorbance measurements were performed at the beginning (t = 0 h) and end (t = 24 h) of the incubation period using a microtiter plate absorbance reader (BMG LABTECH FLUOstar Omega). Bacterial suspensions with DMSO and without QHSs were used as negative controls. […] All tests were performed with six replicates and a minimum of three independent repeats.
# Plates were incubated at 37 °C for 24 h, and growth was visually inspected. […] All tests were performed in triplicate, and with a minimum of three independent repeats.
# S. aureus XU212 = assay: MIC/MBC by broth microdilution, S. aureus XU212; assay type: cell-based; conditions: Staphylococcus aureus
# Method: (§2) S. aureus CECT 976, obtained from the Spanish Type Culture Collection, was used as the standard susceptibility testing control strain. This strain has been previously employed in diverse studies to validate the antimicrobial effects of novel molecules. Additional antibiotic-resistant strains, S. aureus XU212, SA1199B, and RN4220, generously provided by S. Gibbons (University College London, London, UK) were tested. […] The SA1199B strain is characterized by its resistance to fluoroquinolones due to the overexpression of the NorA efflux pump and its ciprofloxacin resistance.
# as §1
# (§3) Plates were incubated at 37 °C for 24 h, and growth was visually inspected. The MBC was determined as the lowest concentration of compound in which the total inhibition of growth on solid medium was observed (no colony forming units (CFUs) were detected). All tests were performed in triplicate, and with a minimum of three independent repeats.
# S. aureus SA1199B [4] = assay: MIC/MBC by broth microdilution, S. aureus SA1199B; assay type: cell-based; conditions: Staphylococcus aureus
# Method: as §2, §1, §3
# S. aureus RN4220 = assay: MIC/MBC by broth microdilution, S. aureus RN4220; assay type: cell-based; conditions: Staphylococcus aureus
# Method: as §2, §1, §3
# S. aureus CECT 976 [5] = assay: Quantitative suspension test, dose-response against planktonic bacteria; assay type: cell-based, Staphylococcus aureus; conditions: S. aureus CECT 976; 30 min exposure
# Method: A quantitative suspension test to explore the dose–response relationships of QHSs by evaluating bactericidal activity was performed. For this method, overnight grown cultures were centrifuged (VWR Mega Star 600R) at 3772× g for 10 min and washed twice with phosphate-buffered saline (PBS; 1.44 g/L of […]—Labkem, Barcelona, Spain; 8 g/L of sodium chloride, 0.2 g/L of potassium chloride, and 0.24 g/L of potassium dihydrogen phosphate—VWR, Leuven, Belgium) at pH 7.4. The collected cells were resuspended in PBS and adjusted to an optical density (OD) of 0.132 ± 0.02 (λ = 600 nm). Afterwards, 100 µL of this cell suspension was aseptically transferred to 800 µL of DW and allowed to stand for 2 min. To this mixture, 100 µL of each QHS solution diluted in DMSO at the desired concentration was added. The dose–response evaluation took place for 30 min at 37 °C. In the case of the negative control (untreated cells), the QHS solution was replaced by an equal volume of DMSO or DW. At the end of the contact time, QHS neutralization was performed through the dilution-neutralization method using a universal neutralizer (1 g/L L-histidine (Merck—Tokyo, Japan), 3 g/L lecithin (Alfa Aesar—Karlsruhe, Germany), 5 g/L sodium thiosulphate (Labkem—Barcelona, Spain), 30 g/L saponin (VWR Chemicals—Leuven, Belgium), and 30 g/L polysorbate 80 (VWR Chemicals—Le Havre, France) in 0.0025 M phosphate buffer). For neutralization, the test blend (100 µL) was added to 800 µL sterile aqueous neutralizing solution and 100 µL of DW. The mixture was gently agitated and allowed to stand for 10 min, after which serial dilutions (up to 10^−5) in sterile saline solution (0.85% w/v NaCl) were prepared. Then, 10 µL of each serial dilution was plated into Petri dishes containing PCA by the drop-plating method. The plates were allowed to set, then inverted and placed in an incubator at 37 °C for 24 h. The surviving cells on the QHS neutralized samples were determined by CFU counting on each plate, ensuring the counting of dilution plates that gave between 10 and 100 CFUs. The antibacterial activity was evaluated by quantification of logarithmic reduction (log CFU/mL), according to Equation (2). log CFU/mL reduction = log (X) − log (X0), (2) where X0 and X are the counts of CFU/mL before (untreated control cells) and after quaternary salt exposure, respectively.
# The QHS concentrations chosen for conducting the dose–response tests comprise of the MBC, which causes the complete reduction of planktonic cells, as well as lower concentrations. Specifically, compound 1e was evaluated at concentrations of 0.25, 0.5, 0.75, 1, 2, 4, 8, and 16 µg/mL, compound 7e at concentrations of 1, 2, 3.2, 3.5, 4, 8, and 16 µg/mL, compound 5e at concentrations of 0.5, 1, 1.3, 1.6, 2, 4, and 8 µg/mL, and compound 3e at concentrations of 0.5, 0.75, 1, 1.3, 1.6, 2, 4, and 8 µg/mL. In the case of compounds 2e, 6e, and 4e, concentrations tested were 0.5, 1, 1.6, 2, 4, and 8 µg/mL. All tests were performed in duplicate, and with a minimum of three independent repeats.
# The Chick–Watson mathematical model, provided in Equation (3), is considered an adequate approach to validate the kinetics of dose–response data. log X/X0 = − Kdis C^n t (3) where X0 and X are the counts of CFU/mL before and after quaternary salt exposure, respectively; Kdis is a killing rate coefficient ((mL.µg^−1)^n.min^−1); C is the quaternary salt concentration (µg.mL^−1); n is the concentration exponent and t is the exposure time (min). The concentration dependence of killing (n) was determined using a toolbox for linear regression in GraphPad Prism (version 8.4.0, GraphPad Software, La Jolla, CA, USA). The quality of the model was evaluated through the regression coefficient (R^2).
# S. aureus SA1199B [6] = conditions: antibiotics, ref Abreu et al. [44]; cited from earlier work
structure (smiles),measurement,setting,value
Cn1c(=O)c2[nH]cnc2n(C)c1=O [Theophylline],CHI0 pH 2.6,[1],17.90
CCCCCCC(=O)c1ccccc1 [Heptanophenone],CHI0 pH 2.6,[1],112.1
"CC[C@H]1OC(=O)[C@H](C)[C@@H](O[C@H]2C[C@@](C)(OC)[C@@H](O)[C@H](C)O2)[C@H](C)[C@@H](O[C@@H]2O[C@H](C)C[C@H](N(C)C)[C@H]2O)[C@](C)(O)C[C@@H](C)C(=O)[C@H](C)[C@@H](O)[C@]1(C)O [[ERY], erythromycin, reference compound]","NR uptake (lysosomal activity), % of control",HepG2 cells; 2 µg/mL,108.4 ± 4.998% (ns)
same,"NR uptake (lysosomal activity), % of control",HepG2 cells; 16 µg/mL,107.1 ± 7.642% (ns)
same,"NR uptake (lysosomal activity), % of control",HepG2 cells; 32 µg/mL,110.2 ± 9.546% (ns)
same,MIC,S. aureus CECT 976 [2],0.24 µg/mL
COc1cc2c(c(OC)c1OC)-c1ccc(OC)c(=O)cc1[C@@H](NC(C)=O)CC2 [Colchicine],CHI0 pH 2.6,[1],43.90
NC(=O)N1c2ccccc2C=Cc2ccccc21 [Carbamazepine],CHI0 pH 2.6,[1],60.42
"Cc1onc(-c2ccccc2)c1C(=O)N[C@@H]1C(=O)N2[C@@H]1SC(C)(C)[C@@H]2C(=O)O [[OXA], oxacillin]",MIC,S. aureus CECT 976 [2],0.48 µg/mL
CCCCC(=O)c1ccccc1 [Valerophenone],CHI0 pH 2.6,[1],96.40
CCCC(=O)c1ccccc1 [Butyrophenone],CHI0 pH 2.6,[1],87.30
Cn1c(=O)c2c(ncn2C)n(C)c1=O [Caffeine],CHI0 pH 2.6,[1],23.41
"CC1(C)S[C@@H]2[C@H](NC(=O)[C@H](N)c3ccccc3)C(=O)N2[C@H]1C(=O)O [[AMP], ampicillin]",MIC,S. aureus CECT 976 [2],1.5 µg/mL
"CCCCCCCCCCCCCC[N+](CC)(CC)CC.[Br-] [Compound 7e, N,N,N-Triethyltetradecan-1-aminium bromide]",MIC,"S. aureus CECT 976 [3]; 24 h, 37 °C, read-out: MIC",2 µg/mL
same,MBC,"S. aureus CECT 976 [3]; plated on PCA, read-out: MBC",16 µg/mL
same,MBC,S. aureus XU212,32 µg/mL
same,MIC,S. aureus XU212,32 µg/mL
same,MBC,S. aureus SA1199B [4],32 µg/mL
same,MIC,S. aureus SA1199B [4],16 µg/mL
same,MBC,S. aureus RN4220,8 µg/mL
same,MIC,S. aureus RN4220,4 µg/mL
same,concentration inducing reductions in S. aureus log CFU/mL > 5,S. aureus CECT 976 [5],3.4 μg/mL
same,"NR uptake (lysosomal activity), % of control",HepG2 cells; 2 µg/mL,86.24 ± 1.502% (****)
same,"NR uptake (lysosomal activity), % of control",HepG2 cells; 16 µg/mL,18.51 ± 2.592% (****)
same,"NR uptake (lysosomal activity), % of control",HepG2 cells; 32 µg/mL,16.59 ± 4.378% (****)
CCC(=O)c1ccccc1 [Propiophenone],CHI0 pH 2.6,[1],77.40
CC(=O)Nc1ccc(O)cc1 [Paracetamol],CHI0 pH 2.6,[1],18.77
c1ccc2[nH]cnc2c1 [Benzimidazole],CHI0 pH 2.6,[1],6.300
"CN(C)[C@@H]1C(O)=C(C(N)=O)C(=O)[C@@]2(O)C(O)=C3C(=O)c4c(O)cccc4[C@@](C)(O)[C@H]3C[C@@H]12 [[TET], tetracycline]",MIC,S. aureus CECT 976 [2],0.96 µg/mL
"O=C(O)c1cn(C2CC2)c2cc(N3CCNCC3)c(F)cc2c1=O [[CIP], ciprofloxacin, reference compound]","NR uptake (lysosomal activity), % of control",HepG2 cells; 2 µg/mL,106.7 ± 11.16% (ns)
same,"NR uptake (lysosomal activity), % of control",HepG2 cells; 16 µg/mL,96.82 ± 5.237% (ns)
same,"NR uptake (lysosomal activity), % of control",HepG2 cells; 32 µg/mL,92.35 ± 6.807% (ns)
same,MIC,S. aureus CECT 976 [2],1 µg/mL
same,MIC,S. aureus SA1199B [6],128 µg/mL
c1ccc2[nH]ccc2c1 [Indole],CHI0 pH 2.6,[1],72.10
